# pIC50: −log10 of the molar value. Active and inactive are the calls of the source. The rule behind the calls is not given here.
# How the values were obtained:
# [1] = Cytotoxicity against human PBMCs at 1 to 4 uM by CCK-8 assay; assay type: toxicity, cell-based; details: pbmc, dose 1-4 µM
# MC-38 [2] = test: Antiproliferative activity against mouse MC38 cells expressing hPD-L1 incubated for 48 hrs by CCK8 assay; details: MC-38, 48 h
# HCC827 [3] = test: Induction of T-cell mediated apoptosis in human HCC827 cells cocultured with PMA-stimulated Jurkat T cells assessed as mortality rate at 4 uM incubated for 48 hrs by CCK-8 assay; assay type: functional
# HCC827 [4] = test: Induction of T-cell mediated apoptosis in human HCC827 cells cocultured with PMA-stimulated Jurkat T cells assessed as mortality rate at 8 uM incubated for 48 hrs by CCK-8 assay; assay type: functional
# MDA-MB-231 [5] = test: Induction of T-cell mediated apoptosis in human MDA-MB-231 cells cocultured with PMA-stimulated Jurkat T cells assessed as mortality rate at 4 uM incubated for 48 hrs by CCK-8 assay; assay type: functional
# MDA-MB-231 [6] = test: Induction of T-cell mediated apoptosis in human MDA-MB-231 cells cocultured with PMA-stimulated Jurkat T cells assessed as mortality rate at 16 uM incubated for 48 hrs by CCK-8 assay; assay type: functional
# MDA-MB-231 [7] = test: Induction of T-cell mediated apoptosis in human MDA-MB-231 cells cocultured with PMA-stimulated Jurkat T cells assessed as mortality rate at 32 uM incubated for 48 hrs by CCK-8 assay; assay type: functional
# MDA-MB-231 [8] = test: Cytotoxicity against human MDA-MB-231 cells at 1 to 32 uM incubated for 48 hrs by CCK-8 assay; assay type: functional, cell-based; details: dose 1-32 µM
# A549 = test: Cytotoxicity against human A549 cells at 1 to 32 uM incubated for 48 hrs by CCK-8 assay; assay type: functional, cell-based; details: dose 1-32 µM
# [9] = AUC(0 to t) in Sprague-Dawley rat at 10 mg/kg, iv measured upto 48 hrs by LC-MS/MS analysis; assay type: ADME, organism-based; details: in vivo
# [10] = Cmax in Sprague-Dawley rat at 10 mg/kg, iv measured upto 48 hrs by LC-MS/MS analysis; assay type: ADME, organism-based; details: in vivo
# [11] = Tmax in Sprague-Dawley rat at 10 mg/kg, iv measured upto 48 hrs by LC-MS/MS analysis; assay type: ADME, organism-based; details: in vivo
# [12] = Half-life in Sprague-Dawley rat at 10 mg/kg, iv measured upto 48 hrs by LC-MS/MS analysis; assay type: ADME, organism-based; details: in vivo
# [13] = Clearance in Sprague-Dawley rat at 10 mg/kg, iv measured upto 48 hrs by LC-MS/MS analysis; assay type: ADME, organism-based; details: in vivo
# [14] = AUC(0 to t) in Sprague-Dawley rat at 50 mg/kg, IG measured upto 48 hrs by LC-MS/MS analysis; assay type: ADME, organism-based; details: in vivo, po
# [15] = AUC(0 to infinity) in Sprague-Dawley rat at 50 mg/kg, IG measured upto 48 hrs by LC-MS/MS analysis; assay type: ADME, organism-based; details: in vivo, po
# [16] = Tmax in Sprague-Dawley rat at 50 mg/kg, IG measured upto 48 hrs by LC-MS/MS analysis; assay type: ADME, organism-based; details: in vivo, po
# [17] = Half-life in Sprague-Dawley rat at 50 mg/kg, IG measured upto 48 hrs by LC-MS/MS analysis; assay type: ADME, organism-based; details: in vivo, po
# [18] = Apparent volume of distribution in Sprague-Dawley rat at 50 mg/kg, IG measured upto 48 hrs by LC-MS/MS analysis; assay type: ADME, organism-based; details: in vivo, po
# [19] = Clearance in Sprague-Dawley rat at 50 mg/kg, IG measured upto 48 hrs by LC-MS/MS analysis; assay type: ADME, organism-based; details: in vivo, po
# [20] = Oral bioavilability in Sprague-Dawley rat at 50 mg/kg measured upto 48 hrs by LC-MS/MS analysis; assay type: ADME, organism-based; details: in vivo
# MC-38 [21] = test: Antitumor activity against mouse MC38 cells expressing hPD-L1 implanted in PD-1/PD-L1 humanized C57BL/6 mouse assessed as tumor growth inhibition at 50 mg/kg, IG; assay type: functional; details: MC-38, po, read-out: TGI
# MC-38 [22] = test: Antitumor activity against mouse MC38 cells expressing hPD-L1 implanted in PD-1/PD-L1 humanized C57BL/6 mouse assessed as tumor growth inhibition at 50 mg/kg, IG QD administered for 15 days and measured every day by caliper method; assay type: functional; details: MC-38, po, 360 h, time 15 day, read-out: TGI
# [23] = Toxicity in PD-1/PD-L1 humanized C57BL/6 mouse implanted with mouse MC38 cells expressing hPD-L1 assessed as animal death at 50 mg/kg, IG QD administered for 15 days; assay type: organism-based, MC-38; details: in vivo, po, 360 h, time 15 day
# MC-38 [24] = test: Antitumor activity against mouse MC38 cells expressing hPD-L1 implanted in PD-1/PD-L1 humanized C57BL/6 mouse assessed as increase in proportion of CD3+/CD8+ T cells at 50 mg/kg, IG QD administered for 15 days by flow cytometry analysis; assay type: functional, organism-based; details: time 15.0 day
# MC-38 [25] = test: Antitumor activity against mouse MC38 cells expressing hPD-L1 implanted in PD-1/PD-L1 humanized C57BL/6 mouse assessed as upregulation of CXCL9 mRNA expression at 50 mg/kg, IG QD administered for 15 days by RT-PCR analysis; assay type: functional, organism-based; details: time 15.0 day
# MC-38 [26] = test: Antitumor activity against mouse MC38 cells expressing hPD-L1 implanted in PD-1/PD-L1 humanized C57BL/6 mouse assessed as upregulation of CXCL10 mRNA expression at 50 mg/kg, IG QD administered for 15 days by RT-PCR analysis; assay type: functional, organism-based; details: time 15.0 day
# MC-38 [27] = test: Antitumor activity against mouse MC38 cells expressing hPD-L1 implanted in PD-1/PD-L1 humanized C57BL/6 mouse assessed as downregulation of PD-L1 mRNA expression at 50 mg/kg, IG QD administered for 15 days by RT-PCR analysis; assay type: functional, organism-based; details: time 15.0 day
# MC-38 [28] = test: Antitumor activity against mouse MC38 cells expressing hPD-L1 implanted in PD-1/PD-L1 humanized C57BL/6 mouse assessed as upregulation of perforin expression at 50 mg/kg, IG QD administered for 15 days by immunohistochemistry analysis; assay type: functional, organism-based; details: time 15.0 day
# [29] = Toxicity in PD-1/PD-L1 humanized C57BL/6 mouse implanted with mouse MC38 cells expressing hPD-L1 assessed as change in liver morphology at 50 mg/kg, IG QD administered for 15 days by H and E staining based inverted fluorescent microscopic assay; assay type: organism-based, MC-38; details: in vivo, po, 360 h, time 15 day
# [30] = Toxicity in PD-1/PD-L1 humanized C57BL/6 mouse implanted with mouse MC38 cells expressing hPD-L1 assessed as change in spleen morphology at 50 mg/kg, IG QD administered for 15 days by H and E staining based inverted fluorescent microscopic assay; assay type: organism-based, MC-38; details: in vivo, po, 360 h, time 15 day
# [31] = Toxicity in PD-1/PD-L1 humanized C57BL/6 mouse implanted with mouse MC38 cells expressing hPD-L1 assessed as change in lung morphology at 50 mg/kg, IG QD administered for 15 days by H and E staining based inverted fluorescent microscopic assay; assay type: organism-based, MC-38; details: in vivo, po, 360 h, time 15 day
# [32] = Toxicity in PD-1/PD-L1 humanized C57BL/6 mouse implanted with mouse MC38 cells expressing hPD-L1 assessed as change in kidney morphology at 50 mg/kg, IG QD administered for 15 days by H and E staining based inverted fluorescent microscopic assay; assay type: organism-based, MC-38; details: in vivo, po, 360 h, time 15 day
# [33] = Toxicity in PD-1/PD-L1 humanized C57BL/6 mouse implanted with mouse MC38 cells expressing hPD-L1 assessed as nephrotoxicity at 50 mg/kg, IG QD administered for 15 days; assay type: organism-based, MC-38; details: in vivo, po, 360 h, time 15 day
smiles,measurement,setting,value
N#Cc1cncc(COc2cc(OCc3cccc(-c4ccc5c(c4)OCCO5)c3C(F)F)ccc2CNCCO)c1,Activity,[1],Non-Toxic
same,pIC50,MC-38 [2],< 5.10
same,Activity,HCC827 [3],40.4%
same,Activity,HCC827 [4],51.7%
same,Activity,MDA-MB-231 [5],40.6%
same,Activity,MDA-MB-231 [6],57.1%
same,Activity,MDA-MB-231 [7],64%
same,Activity,MDA-MB-231 [8],inactive
same,Activity,A549,inactive
same,AUC(0-t) at 48 h,[9],12.8 µg·h/mL
same,Cmax,[10],4.56 µg/mL
same,Tmax,[11],7.8 min
same,t1/2,[12],2.47 h
same,CL,[13],0.72 L/h/kg
same,AUC(0-t) at 48 h,[14],41.8 µg·h/mL
same,AUC(0-inf),[15],42 µg·h/mL
same,Tmax,[16],2.38 h
same,t1/2,[17],5.52 h
same,Vz,[18],31.76 L/kg
same,CL,[19],1.19 L/h/kg
same,bioavailability,[20],65.3%
same,inhibition in vivo at 50 mg/kg,MC-38 [21],62.4%
same,inhibition in vivo at 50 mg/kg,MC-38 [22],57.3%
same,Activity,[23],Non-Toxic
same,Activity,MC-38 [24],Active
same,Activity,MC-38 [25],Active
same,Activity,MC-38 [26],Active
same,Activity,MC-38 [27],Active
same,Activity,MC-38 [28],Active
same,Activity,[29],Non-Toxic
same,Activity,[30],Non-Toxic
same,Activity,[31],Non-Toxic
same,Activity,[32],Non-Toxic
same,Activity,[33],Non-Toxic

# From ChEMBL document CHEMBL5608200, “Design, synthesis, and evaluation of antitumor activity of 2-arylmethoxy-4-(2-fluoromethyl-biphenyl-3-ylmethoxy) benzylamine derivatives as PD-1/PD-l1 inhibitors” (Eur J Med Chem, 2024)
